What was measured:
[1] = Antiatherogenic action on rabbits: carotid atheromas induced by electrical stimulation plus cholesterol-rich diet, 28 days; assay type: in vivo, male rabbits; conditions: rabbit, in vivo; rabbits, oral part of the daily dose (given with s.c. doses); read-out: Highest tolerated daily dose, oral
Protocol: (§1) Local atheromas are induced by the method of E. Betz and W. Schlote (Basic Res. Cardiol. 1979, 74, 10-20) by electrical stimulation of the carotid artery while, at the same time, feeding a cholesterol-rich diet (2%). At the end of the test period, the atheromas formed under the anode of the stimulating electrodes are removed and their size is determined histologically. Used as a measure of the size of the atheromas is the maximum number of their cell layers determined microscopically from serial sections. The extent of the antiarteriosclerotic action is established by comparison with untreated control animals. Verapamil and gallopamil are used as comparative substances.

[2] = tested on: atheromas (carotid artery); test: as above; assay type: in vivo, male rabbits; conditions: for Maximum number of cell layers in the atheromas / Maximum number of cell layers in the atheromas, % change: 28 days; for Maximum number of cell layers in the atheromas, % change: vs untreated control; for Action against arteriosclerosis (in words): general statement; for Inhibition of the development of atheromas (in words): compared with verapamil
Protocol: as §1

[3] = rabbits, highest tolerated daily dose 2 × 0.215 mg/kg s.c. + 4.64 mg/kg oral
[4] = rabbits, daily dose 2 × 1.0 mg/kg s.c. + 21.5 mg/kg oral, verapamil, nor-gallopamil *P < 0.05, nor-verapamil P = 0.682
[5] = rabbits, daily dose 2 × 1.0 mg/kg s.c. + 21.5 mg/kg oral

Row | Structure (SMILES) | MTD at 672 h [1] [mg/kg] | Antiatherogenic effect (in words) ([2]; rabbits, at the highest tolerated daily dose) | Maximum number of cell layers in the atheromas [2, 3] | Maximum number of cell layers in the atheromas, % change [2, 3] | Action against arteriosclerosis (in words) [2] | Inhibition of the development of atheromas (in words) ([2]; rabbits) | Maximum number of cell layers in the atheromas [2, 4] | Maximum number of cell layers in the atheromas, % change [2, 5] [%]
1 | COc1ccc(CCN(C)CCCC(C#N)(c2cc(OC)c(OC)c(OC)c2)C(C)C)cc1OC (centres unmarked) [Gallopamil, 5-[N-(3,4-dimethoxyphenethyl)-N-methylamino]-2-(3,4,5-trimethoxyphenyl]-2-isopropyl-valeronitrile] | 4.64 | no antiatherogenic effect | 15 ± 0.99 | +7.1% |  |  |  | 
2 | COc1ccc(CCNCCCC(C#N)(c2cc(OC)c(OC)c(OC)c2)C(C)C)cc1OC (centres unmarked) [Nor-gallopamil] |  |  |  |  | very good action against arteriosclerosis | inhibit the development of atheromas to about the same extent as verapamil | 12 ± 1.3 | -44
3 | COc1ccc(CCNCCCC(C#N)(c2ccc(OC)c(OC)c2)C(C)C)cc1OC (centres unmarked) [Nor-verapamil, 5-[N-(3,4-dimethoxyphenethyl)-amino]-2-(3,4-dimethoxyphenyl)-2-isopropyl-valeronitrile] |  |  |  |  | very good action against arteriosclerosis | inhibit the development of atheromas to about the same extent as verapamil | 8.1 ± 1.3 | -40
4 | COc1ccc(CCN(C)CCCC(C#N)(c2ccc(OC)c(OC)c2)C(C)C)cc1OC (centres unmarked) [Verapamil, 5-[N-(3,4-dimethoxyphenethyl)-N-methylamino]-2-(3,4-dimethoxyphenyl)-2-isopropyl-valeronitrile] |  |  |  |  |  |  | 3.8 ± 0.37 | -51
